Reference: patent US4560687A, “Substituted aromatic compounds” (priority 1979, dated 1985)
Where two headings read alike, the source gives them in different places.

Experiments:
Plasmadium berghei = Plasmadium berghei in mice; Rees et al, 1972; cited from earlier work
[1] = anti-malarial agents tested as anticonvulsants; Rosenburg and Bottiroli, 1964; cited from earlier work
[2] = standard maximal electroshock test (anticonvulsant activity); type: in vivo; settings: Mus musculus, po, mice
Procedure: The anticonvulsant activity of the compounds of the present invention was determined by a standard maximal electroshock test, that described by L. A. Woodbury and V. D. Davenport, Arch. Int. Pharmacodyn., 1952, 92, 97.

[3] = cited from earlier work; for toxicity: at curative doses

| Structure (SMILES) | activity against malaria (Plasmadium berghei) | ED50 [2] | toxicity ([3]; Rees et al, 1972) | also measured |
| --- | --- | --- | --- | --- |
| Nc1nnc(-c2ccc(Cl)cc2Cl)c(N)n1 [2,4-dichlorophenyl] | only slight antimalarial activity |  |  |  |
| CCN(CCO)CCCC(C)Nc1ccnc2cc(Cl)ccc12 (stereo not shown) [hydroxychloroquine] |  |  |  | anticonvulsant activity profile [1]: favourable activity profile |
| Nc1nnc(-c2cc3ccccc3cc2Cl)c(N)n1 [3,5-diamino-6-(3-chloro-2-naphthyl)-1,2,4-triazine] |  | 12 mg/kg |  |  |
| Nc1nnc(-c2ccc(Cl)cc2)c(N)n1 [4-chlorophenyl] | active against the malaria organism |  | toxic at curative doses | therapeutic ratio ([3]; malaria context, Rees et al, 1972): low therapeutic ratio |
| Nc1nnc(-c2ccc(C(F)(F)F)cc2)c(N)n1 [4-trifluoromethylphenyl] | still being active against malaria |  | less toxic than the chlorophenyl compounds |  |
| Nc1nnc(-c2ccc(Cl)c(Cl)c2)c(N)n1 [3,4-dichlorophenyl] | active against the malaria organism |  | toxic at curative doses | therapeutic ratio ([3]; mouse, in vivo): low therapeutic ratio |
| Nc1nnc(-c2ccc(Cl)c(C(F)(F)F)c2)c(N)n1 [3,5-diamino-6-(4-chloro-3-trifluoromethylphenyl)-1,2,4-triazine] |  | 18.5 mg/kg |  |  |
| Cc1cc(Cl)ccc1-c1nnc(N)nc1N [3,5-diamino-6-(4-chloro-2-methylphenyl)-1,2,4-triazine] |  | 14.8 mg/kg |  |  |
